In brackets after ≈: the same amount, converted by molar mass. Read-outs that look alike come from different tables or passages of the source.

The results in this text go back to patent US4357331A, “7αMethoxycephalosporin derivatives” (Meiji Seika Kaisha, Ltd., priority 1978, dated 1982).

Test [1] concerns Bacillus anthracis No. 119. Put plainly: microbe, parasite or virus in culture. In kind it is cell-based. The note with it: NO.119, 20 h, read-out: MIC (minimum inhibitory concentration).
The subject of test [2] is Citrobacter freundii. The experiment in a line: MIC, minimum inhibitory concentration (nutrient agar, 37° C., 20 hours). In kind it is cell-based.
The test system of test [3] is Escherichia coli 255. The test is described as above. In kind it is cell-based.
Test [4] deals with Escherichia coli No. 29. Put plainly: in vivo antibacterial activity (ED50) in mice challenged intraperitoneally with E. coli No. 29. The note with it: male ddY mice, fatality over a week, Probit method. On the set-up: species or system Escherichia coli No. 29; Male ddY mice.
In test [5] the test system is Proteus morganii. Put plainly: MIC, minimum inhibitory concentration (nutrient agar, 37° C., 20 hours). In kind it is cell-based. The note with it: Morganella morganii.
Test [6] relates to Staphylococcus aureus 209p. The description is as above. In kind it is cell-based.
In test [7] the test system is Pseudomonas aeruginosa IFO 3080. Described as above. The note with it: IFO3080. In kind it is cell-based.
The test system of test [8] is Klebsiella pneumoniae. The test is described as above. In kind it is cell-based. The note with it: read-out: MIC (minimum inhibitory concentration).
Test [9] has as its system Serratia marcescens No. 1. The description is as above. In kind it is cell-based. The note with it: read-out: MIC (minimum inhibitory concentration).
Where [10] appears, read: Serratia marcescens No. 1, 37° C., 20 hours.

`CO[C@@]1(NC(=O)Cc2cccs2)C(=O)N2C(C(=O)O)=C(COC(N)=O)CS[C@@H]21` [Cefoxitin, cefoxitin, reference compound]: the MIC in test [1] was found to be 3.13 µg/mL (≈ 7.32 µM); in test [2], 50 µg/mL (≈ 117 µM); in test [3] it was 50 µg/mL (≈ 117 µM); in [5], 6.25 µg/mL (≈ 14.6 µM); in test [6] it was 1.56 µg/mL (≈ 3.65 µM); in test [7] it was 100 µg/mL (≈ 234 µM). Further, the MIC in [8] (20 h) was determined as 3.13 µg/mL (≈ 7.32 µM); in test [9] (Serratia marcescens, NO.1, 20 h), 3.13 µg/mL (≈ 7.32 µM). Further, the “ED50 with Escherichia coli No. 29” value was over 5.0 mg/mouse in [4] (oral) and 0.43 mg/mouse in [4] (subcutaneous).
As for `CC1=C(C(=O)O)N2C(=O)[C@@H](NC(=O)[C@H](N)c3ccccc3)[C@H]2SC1` [Cephalexin, cephalexin, reference compound], in [4] (oral), the “ED50 with Escherichia coli No. 29” value was determined as 1.60 mg/mouse.
`COC1(NC(=O)CSCCN)C(=O)N2C(C(=O)O)=C(CSc3nnnn3C)CSC21` (stereo not drawn) [Ex. 1, 7β-aminoethylthioacetamido-7α-methoxy-3-(1-methyl-1H-tetrazol-5-yl)thiomethyl-3-cephem-4-carboxylic acid]: the MIC in test [1] stood at 0.39 µg/mL (≈ 0.82 µM); in [2], 1.56 µg/mL (≈ 3.28 µM); in test [3], 6.25 µg/mL (≈ 13.1 µM); in test [5], 6.25 µg/mL (≈ 13.1 µM); in test [6], 1.56 µg/mL (≈ 3.28 µM); in [7], 25 µg/mL (≈ 52.6 µM). In addition, the MIC in [8] (37° C., 20 hours) is 3.13 µg/mL (≈ 6.58 µM); in [9] (setting [10]) it was 3.13 µg/mL (≈ 6.58 µM).
As for `COC1(NC(=O)CSCCNC(N)=O)C(=O)N2C(C(=O)O)=C(CSc3nnnn3C)CSC21` (stereo not drawn) [Ex. 2, 7β-ureidoethylthioacetamido-7α-methoxy-3-(1-methyl-1H-tetrazol-5-yl)thiomethyl-3-cephem-4-carboxylic acid], the MIC in [1] amounted to 0.78 µg/mL (≈ 1.5 µM); in [2], 25 µg/mL (≈ 48.2 µM); in [3], 12.5 µg/mL (≈ 24.1 µM); in [5], 3.13 µg/mL (≈ 6.04 µM); in test [6] it was 3.13 µg/mL (≈ 6.04 µM); in test [7], 25 µg/mL (≈ 48.2 µM). Besides, the MIC stood at 1.56 µg/mL (≈ 3.01 µM) in test [8] (37° C., 20 hours) and 3.13 µg/mL (≈ 6.04 µM) in test [9] (setting [10]).
As for `COC1(NC(=O)CSCCC(N)C(=O)O)C(=O)N2C(C(=O)O)=C(CSc3nnnn3C)CSC21` (stereo not drawn) [Ex. 11, sodium 7β-(3D-3-amino-3-carboxy)propylthioacetamido-7α-methoxy-3-(1-methyl-1H-tetrazol-5-yl)thiomethyl-3-cephem-4-carboxylate], the MIC in test [1] is 0.2 µg/mL; in test [2], 25 µg/mL; in test [3], 0.78 µg/mL; in test [5] it was 3.13 µg/mL; in [6], 3.13 µg/mL; in test [7], 100 µg/mL. Also, the MIC in test [8] (37° C., 20 hours) is 1.56 µg/mL; in [9] (setting [10]), 0.78 µg/mL.
As to `COC1(NC(=O)CSCCC(N)C(=O)O)C(=O)N2C(C(=O)[O-])=C(C[n+]3ccc(C(N)=O)cc3)CSC21` (stereo not drawn) [Ex. 12, 7β-(3DL-3-amino-carboxy)propylthioacetamido-7α-methoxy-3-(p-carbamoylpyridinium)methyl-3-cephem-4-carboxylic acid], the MIC in test [1] was determined as 1.56 µg/mL (≈ 2.89 µM); in [2], 25 µg/mL (≈ 46.3 µM); in test [3] it was 3.13 µg/mL (≈ 5.8 µM); in test [5] it was 12.5 µg/mL (≈ 23.2 µM); in test [6] it was 6.25 µg/mL (≈ 11.6 µM); in test [7], 6.25 µg/mL (≈ 11.6 µM). Moreover, the MIC in test [8] (37° C., 20 hours) stood at 6.25 µg/mL (≈ 11.6 µM); in test [9] (setting [10]) it was 12.5 µg/mL (≈ 23.2 µM).
With `CCOC(=O)C(N)CSCC(=O)NC1(OC)C(=O)N2C(C(=O)OCOC(=O)C(C)(C)C)=C(CSc3nnnn3C)CSC21` (stereo not drawn) [Example 17, pivaloyloxymethyl 7β-(2D-2-amino-2-ethoxycarbonyl)ethylthioacetamido-7α-methoxy-3-(1-methyl-1H-tetrazol-5-yl)thiomethyl-3-cephem-4-carboxylate], the “ED50 with Escherichia coli No. 29” value stood at 0.86 mg/mouse in [4] (oral) and 0.046 mg/mouse in test [4] (subcutaneous).
For the compound `COC(=O)C(N)CSCC(=O)NC1(OC)C(=O)N2C(C(=O)OC(C)OC(C)=O)=C(CSc3nnnn3C)CSC21` (stereo not drawn) [Example 18, 1-acetoxyethyl 7β-(2D-2-amino-2-methoxycarbonyl)ethylthioacetamido-7α-methoxy-3-(1-methyl-1H-tetrazol-5-yl)thiomethyl-3-cephem-4-carboxylate], the “ED50 with Escherichia coli No. 29” value in test [4] (oral) is recorded as 0.36 mg/mouse; in test [4] (subcutaneous), 0.24 mg/mouse.
`COC1(NC(=O)CSCC(N)C(=O)O)C(=O)N2C(C(=O)OC(C)OC(=O)C(C)(C)C)=C(CSc3nnnn3C)CSC21` (stereo not drawn) [Example 19, 1-pivaloyloxyethyl 7β-(2D-2-amino-2-carboxy)ethylthioacetamido-7α-methoxy-3-(1-methyl-1H-tetrazol-5-yl)thiomethyl-3-cephem-4-carboxylate]: the “ED50 with Escherichia coli No. 29” value is 0.25 mg/mouse in test [4] (oral) and 0.17 mg/mouse in test [4] (subcutaneous).
